Measurements: patent US4772704A, “2,5-disubstituted-4(3H)-pyrimidones having histamine H2 -receptor antagonist activity” (Bristol-Myers Company, priority 1983, dated 1988)

How the values were obtained:
gastric acid secretion = test: Gastric Antisecretory Activity in the Gastric Fistula Rat; assay type: in vivo, Male Long Evans rats; conditions: sc
Method: Determination of Gastric Antisecretory Activity in the Gastric Fistula Rat Male Long Evans rats weighing about 240-260 grams at the time of cannula implantation are used. […] The fistula components are designed and the operative procedure is carried out exactly as described in the above reference. Post operatively the animals are individually housed in solid bottom cages with sawdust and are allowed food and water ad libitum throughout the entire recovery period. Animals are not used for test purposes for at least 15 days after the operative procedure. The animals are fasted but allowed water ad libitum for 20 hours before the testing procedure is to begin. […] The catheter is then screwed into the cannula in place of the plugging screw and the rat is placed in a clear plastic rectangular cage measuring 40 cm long, 15 cm wide and 13 cm high. The bottom of the cage has a slit approximately 1.5 cm wide and 25 cm long running down the center to accommodate the catheter which hangs through it. […] Chem. Path. […] Titratable acid output is calculated in microequivalents by multiplying the volume in milliliters by the acid concentration in milliequivalents per liter. Results are expressed as percent inhibition relative to control readings. Dose response curves are constructed and ED50 values are calculated by regression analyses. […]

[1] = tested on: histamine-stimulated gastric acid output; test: Gastric Antisecretory Activity In The Heidenhain Pouch Dog; assay type: in vivo, female dogs
Method: Determination of Gastric Antisecretory Activity In The Heidenhain Pouch Dog
Prior to surgery, hematology and blood chemistry profiles are obtained and an assessment made as to the general health of selected female dogs. Dogs are vaccinated with Tissue Vax 5 (DHLP--Pitman-Moore) and housed in general animal quarters for four weeks' observation so incipient diseases may become apparent. Dogs are fasted with water ad libitum 24 hours prior to surgery.
Anesthesia is induced with Sodium Pentothal (Abbott) 25-30 mg/kg iv. Subsequent anesthesia is maintained with methoxyflurane (Pitman-Moore). A midline linea alba incision from xiphoid to umbilicus provides good exposure and ease of closure. The stomach is pulled up into the operative field, the greater curvature stretched out at multiple points and clamps placed along the selected line of incision. The pouch is made from the corpus of the stomach so that true parietal cell juice is obtained. About 30% of the corpus volume is resected. The cannula is made of light-weight,biologically-inert material such as nylon or Delrin with dimensions and attachments after DeVito and Harkins (J. Appl. Physiol., 14, 138 (1959). Post operatively, dogs are medicated with antibiotics and an analgesic. They are allowed 2-3 months for recovery. Experiments are carried out in the following way: Dogs are fasted overnight (≈18 hours) with water ad libitum prior to each experiment. The dogs are placed in a sling and a saphenous vein cannulated for drug administration. Histamine as the base (100 μg/kg/hr) and chlorpheniramine maleate (0.25 mg/kg/hr) are infused continuously (in a volume of 6 ml/hr) with a Harvard infusion pump.
Ninety minutes' infusion are allowed for the dogs to reach a steady state of acid output. At this time the drug or normal saline (control) is administered concomitantly with the secretagogue in a volume of 0.5 ml/kg over a 30 second period. When oral studies are to be carried out, the drug is administered via gastric gavage in a volume of 5 ml/kg. Infusion of the secretagogue is continued and 15 minute samples of the gastric juice are taken for 4.5 hours. Each sample is measured to the nearest 0.5 ml and titratable acidity is determined by titrating a 1 ml sample to pH 7.0 with 0.2N NaOH, using an Autoburet and an electrometric pH meter (Radiometer). Titratable acid output is calculated in microequivalents by multiplying the volume in milliliters by the acid concentration in milliequivalents per liter.
Results are expressed as percent inhibition relative to control readings and the response is the average for five dogs at that dose level.

histamine H2-receptor [2] = conditions: relative to burimamide or metiamide; cited from earlier work
histamine H2-receptor [3] = conditions: man; cited from earlier work
[4] = cited from earlier work

For `Nc1cnc(NCCCOc2cccc(CN3CCCCC3)c2)[nH]c1=O` [Example 2, 5-Amino-2-[3-(3-piperidinomethylphenoxy)propylamino]-4(3H)-pyrimidone], which ED50 (gastric acid secretion) is on record?
The ED50 was 0.15 µmol/kg.

And the “Potency Ratio [cimetidine = 1.0]” value (gastric acid secretion; cimetidine = 1.0)?
Its value is 26.

And the “% Maximum Inhibition” value ([1]; Intravenous, single dose 0.094 μmoles/kg, 5 dogs)?
Its value is 90%.

And the “Potency Ratio [cimetidine = 1.0]” value ([1]; Intravenous)?
Its value is 50.

What about the “% Maximum Inhibition” value ([1]; Oral, single dose 0.5 μmoles/kg, 5 dogs) of the same compound?
The value was 86%.

What about the “Potency Ratio [cimetidine = 1.0]” value ([1]; Oral) of the same compound?
The value was 20.

What about the “duration of antisecretory action relative to cimetidine” value ([1]; both the intravenous and oral dog models) of the same compound?
Its value is “prolonged duration of action relative to cimetidine”.

Which results are given for `CNC(=NC#N)NCCSCc1nc[nH]c1C` [Cimetidine, reference compound]?
% Maximum Inhibition ([1]; Intravenous, dose 6.0 μmoles/kg, Heidenhain pouch dog): 94%; % Maximum Inhibition ([1]; Oral, dose 12.0 μmoles/kg, Heidenhain pouch dog): 95%; potency or effectiveness as histamine H2-antagonist, relative (histamine H2-receptor [2]): as effective an histamine H2 -antagonist as metiamide

With `CNC(=S)NCCSCc1nc[nH]c1C` [Metiamide] as the compound, how does the “potency or effectiveness as histamine H2-antagonist, relative” value (histamine H2-receptor [2]) read?
The value was “more potent than burimamide”.

What about the oral activity (histamine H2-receptor [3]) of the same compound?
The oral activity was “orally active in man”.

For `CNC(=S)NCCCCc1cnc[nH]1` [Burimamide], which oral absorption [4] is on record?
The oral absorption was “poor”.
